Measurements as given in the supplement of paper PMC11061612.

Legend:
Test in all cases: Bliss excess, mean over the matrix (fraction); higher = more synergy
[1] = tested on: BE-13 (T-Lymphoblastic Leukemia)
Procedure, shortened: (§1)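 Cell lines in DMEM/F12 or RPMI with 10% FBS were plated in 1536-well plates, held 24 hours at 37°C, 5% CO2, then given two-drug dose matrices for 72 hours (DMSO typically 0.2%). Viability was read by CellTiter-Glo 2.0 luminescence and scaled as inhibition from 0 (vehicle wells) to 1 (blank wells). Combination Emax is the second-highest inhibition in the matrix; Bliss excess is observed combination effect minus expected EA + EB − EA·EB, EA and EB being single-agent effects.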

[2] = tested on: BFTC-909 (Kidney Carcinoma)
Procedure, shortened: as §1

[3] = tested on: FTC-133 (Thyroid Gland Carcinoma)
Procedure, shortened: as §1

[4] = tested on: GAMG (Glioblastoma)
Procedure, shortened: as §1

[5] = tested on: HH (T-Cell Non-Hodgkin's Lymphoma)
Procedure, shortened: as §1

[6] = tested on: HeLa (Cervical Carcinoma)
Procedure, shortened: as §1

[7] = tested on: HuCCT1 (Biliary Tract Carcinoma)
Procedure, shortened: as §1

[8] = tested on: KMRC-20 (Kidney Carcinoma)
Procedure, shortened: as §1

[9] = tested on: L-428 (Hodgkin's Lymphoma)
Procedure, shortened: as §1

[10] = tested on: LNZTA3WT4 (Low Grade Glioma)
Procedure, shortened: as §1

[11] = tested on: LOXIMVI (Melanoma)
Procedure, shortened: as §1

[12] = tested on: MPP-89 (Mesothelioma)
Procedure, shortened: as §1

[13] = tested on: NCI-H209 (Small Cell Lung Carcinoma)
Procedure, shortened: as §1

[14] = tested on: NUGC-4 (Gastric Carcinoma)
Procedure, shortened: as §1

[15] = tested on: OV-56 (Ovarian Carcinoma)
Procedure, shortened: as §1

[16] = tested on: SAS (Oral Cavity Carcinoma)
Procedure, shortened: as §1

[17] = tested on: SNU-16 (Gastric Carcinoma)
Procedure, shortened: as §1

[18] = tested on: SNU-449 (Hepatocellular Carcinoma)
Procedure, shortened: as §1

[19] = tested on: SW1573 (Lung Adenocarcinoma)
Procedure, shortened: as §1

[20] = tested on: SW1710 (Bladder Carcinoma)
Procedure, shortened: as §1

Compound | Bliss excess [1] | Bliss excess [2] | Bliss excess [3] | Bliss excess [4] | Bliss excess [5] | Bliss excess [6] | Bliss excess [7] | Bliss excess [8] | Bliss excess [9] | Bliss excess [10] | Bliss excess [11] | Bliss excess [12] | Bliss excess [13] | Bliss excess [14] | Bliss excess [15] | Bliss excess [16] | Bliss excess [17] | Bliss excess [18] | Bliss excess [19] | Bliss excess [20]
Cn1cnc2c(F)c(Nc3ccc(Br)cc3Cl)c(C(=O)NOCCO)cc21 [Selumetinib] + CCN(CCO)CCCOc1ccc2c(Nc3cc(CC(=O)Nc4cccc(F)c4)[nH]n3)ncnc2c1 [AZD2811] (first compound max 10 µM, 7x7, partner max 1 µM) | -0.0213 | -0.0093 | -0.03 | -0.0213 | -0.0825 | -0.0561 | 0.0066 | -0.059 | 0.0174 | -0.0094 | 0.012 | -0.0325 | 0.0805 | -0.0067 | -0.0677 | -0.0274 | -0.0501 | -0.0582 | -0.0605 | -0.0548
COc1cccc(OCCCN)c1-c1cc(Nc2cnc(C#N)cn2)n[nH]1 [Prexasertib] + Cc1cc2ncnn2cc1Nc1ncc2c(n1)n(C1CCOCC1)c(=O)n2C [AZD7648] (first compound max 1 µM, 7x7, partner max 10 µM) | 0.0364 | 0.0182 | -0.0311 | -0.0214 | -0.021 | 0.0133 | -0.0259 | -0.0474 | -0.0165 | -0.064 | 0.0017 | -0.0104 | 0 | 0.0137 | -0.0467 | -0.0247 | -0.0059 | -0.0861 | -0.0225 | -0.045
CN(C)CCCOc1ccc(-c2ccc3ncc4c(c3c2)n(C2CCOCC2)c(=O)n4C)cn1 [AZD0156] + C[C@@H]1COCCN1C2=NC(=NC(=C2)C3(CC3)[S@](=N)(=O)C)C4=C5C=CNC5=NC=C4 [AZD6738] (first compound max 1 µM, 7x7, partner max 10 µM) | -0.0619 | 0.027 | -0.0043 | -0.0485 | 0.0175 | -0.0217 | 0.0297 | -0.031 | 0.0132 | -0.0016 | 0.0721 | 0.0041 | 0.0711 | 0.0101 | 0.0361 | -0.0363 | 0.0529 | -0.0662 | -0.0315 | -0.0134
CC(=O)Nc1cccc(-n2c(=O)n(C3CC3)c(=O)c3c(Nc4ccc(I)cc4F)n(C)c(=O)c(C)c32)c1 [Trametinib] + Cc1nc(-c2cn3c(n2)-c2ccc(-c4cnn(C(C)(C)C(N)=O)c4)cc2OCC3)n(C(C)C)n1 [Taselisib] (first compound max 1 µM, 7x7, partner max 10 µM) | -0.0123 | 0.182 | -0.046 | 0.0415 | 0.0868 | 0.0483 | 0.182 | 0.0506 | -0.0045 | 0.0829 | 0.137 | 0.103 | -0.0014 | 0.0347 | -0.0025 | 0.145 | 0.257 | -0.0432 | 0.0334 | 0.016
CC1(C)CCC(CN2CCN(c3ccc(C(=O)NS(=O)(=O)c4ccc(NCC5CCOCC5)c([N+](=O)[O-])c4)c(Oc4cnc5[nH]ccc5c4)c3)CC2)=C(c2ccc(Cl)cc2)C1 [Venetoclax] + CCN(CCO)CCCOc1ccc2c(Nc3cc(CC(=O)Nc4cccc(F)c4)[nH]n3)ncnc2c1 [AZD2811] (first compound max 1 µM, 7x7, partner max 1 µM) | -0.0468 | -0.0289 | 0.0192 | -0.0368 | -0.0152 | 0.0336 | -0.0062 | -0.0273 | 0.0178 | 0.0218 | 0.0139 | -0.0093 | 0.356 | -0.0481 | 0.0214 | 0.009 | 0.0202 | -0.0642 | -0.0575 | 0.0032
CC1(C)CCC(CN2CCN(c3ccc(C(=O)NS(=O)(=O)c4ccc(NCC5CCOCC5)c([N+](=O)[O-])c4)c(Oc4cnc5[nH]ccc5c4)c3)CC2)=C(c2ccc(Cl)cc2)C1 [Venetoclax] + C1CN(CCC1(C(=O)N[C@@H](CCO)C2=CC=C(C=C2)Cl)N)C3=NC=NC4=C3C=CN4 [Capivasertib] (first compound max 1 µM, 7x7, partner max 3 µM) | -0.0684 | -0.0292 | -0.0473 | -0.0185 | 0.0213 | -0.0669 | -0.0734 | -0.0172 | -0.0577 | -0.0297 | -0.0142 | -0.0361 | -0.0005 | -0.0673 | -0.0323 | 0.0016 | -0.0496 | -0.075 | -0.0428 | -0.0896
C=CCn1c(=O)c2cnc(Nc3ccc(N4CCN(C)CC4)cc3)nc2n1-c1cccc(C(C)(C)O)n1 [AZD1775] + C[C@@H]1COCCN1C2=NC(=NC(=C2)C3(CC3)[S@](=N)(=O)C)C4=C5C=CNC5=NC=C4 [AZD6738] (first compound max 1 µM, partner max 10 µM) | 0.0159 | 0.0858 | 0.0508 | -0.0218 | 0.0379 | 0.0883 | -0.0205 | 0.0174 | 0.0246 | 0.0076 | -0.0609 | 0.0013 | 0.0422 | -0.0701 | 0.0141 | 0.0138 | -0.0002 | -0.0061 | 0.0334 | 0.0811
NC1(C(=O)N[C@@H](CCO)c2ccc(Cl)cc2)CCN(c2ncnc3[nH]ccc23)CC1 [Capivasertib] + CCN(CCO)CCCOc1ccc2c(Nc3cc(CC(=O)Nc4cccc(F)c4)[nH]n3)ncnc2c1 [AZD2811] (first compound max 10 µM, 7x7, partner max 1 µM) | -0.0125 | 0.0366 | 0.0005 | -0.0737 | -0.0221 | -0.0411 | 0.0051 | -0.015 | 0.0098 | -0.0551 | -0.0072 | -0.0481 | -0.0383 | -0.0543 | -0.0077 | -0.0264 | 0.0416 | -0.0166 | -0.0197 | -0.0507
CC1(C)CCC(CN2CCN(c3ccc(C(=O)NS(=O)(=O)c4ccc(NCC5CCOCC5)c([N+](=O)[O-])c4)c(Oc4cnc5[nH]ccc5c4)c3)CC2)=C(c2ccc(Cl)cc2)C1 [Venetoclax] + COc1cc(Nc2ncc3c(n2)-c2ccc(Cl)cc2C(c2c(F)cccc2OC)=NC3)ccc1C(=O)O [Alisertib] (first compound max 1 µM, 7x7, partner max 10 µM) | -0.003 | 0.0116 | 0.0138 | -0.0024 | -0.0223 | 0.0517 | -0.0148 | 0.0226 | 0.0501 | 0.023 | -0.0332 | -0.0556 | 0.318 | -0.0557 | 0.001 | -0.0842 | -0.052 | -0.0753 | -0.0548 | -0.0425
CC(=O)c1c(C)c2cnc(Nc3ccc(N4CCNCC4)cn3)nc2n(C2CCCC2)c1=O [Palbociclib] + CC1(C)CCC(CN2CCN(c3ccc(C(=O)NS(=O)(=O)c4ccc(NCC5CCOCC5)c([N+](=O)[O-])c4)c(Oc4cnc5[nH]ccc5c4)c3)CC2)=C(c2ccc(Cl)cc2)C1 [Venetoclax] (first compound max 10 µM, 7x7, partner max 1 µM) | -0.0182 | 0.0244 | -0.0481 | -0.0097 | -0.0384 | -0.0473 | -0.0611 | -0.03 | 0.0037 | -0.0032 | -0.0045 | -0.0484 | 0.0824 | -0.0246 | -0.0448 | 0.014 | -0.0161 | -0.0153 | -0.0108 | 0.0152
COc1cccc(OCCCN)c1-c1cc(Nc2cnc(C#N)cn2)n[nH]1 [Prexasertib] + O=C(c1cc(Cc2n[nH]c(=O)c3ccccc23)ccc1F)N1CCN(C(=O)C2CC2)CC1 [Olaparib] (first compound max 1 µM, 7x7, partner max 10 µM) | -0.0341 | -0.0109 | -0.0399 | 0.0122 | -0.121 | -0.0483 | -0.0824 | -0.0735 | -0.0418 | -0.0274 | -0.0372 | -0.0227 | -0.0442 | -0.019 | -0.0739 | -0.0104 | -0.0417 | -0.0813 | 0.001 | -0.0857
CC1(C)CCC(CN2CCN(c3ccc(C(=O)NS(=O)(=O)c4ccc(NCC5CCOCC5)c([N+](=O)[O-])c4)c(Oc4cnc5[nH]ccc5c4)c3)CC2)=C(c2ccc(Cl)cc2)C1 [Venetoclax] + C=CCn1c(=O)c2cnc(Nc3ccc(N4CCN(C)CC4)cc3)nc2n1-c1cccc(C(C)(C)O)n1 [AZD1775] (first compound max 1 µM, partner max 1 µM) | 0.0227 | -0.0556 | 0.0065 | 0.0112 | 0.029 | -0.0459 | -0.0281 | -0.044 | -0.0298 | 0.0509 | 0.0417 | 0.1 | 0.107 | -0.0733 | -0.0114 | -0.0073 | -0.0478 | -0.0353 | -0.0427 | -0.0519
